In ChEMBL document CHEMBL1909046, “DrugMatrix in vitro pharmacology data”:

Legend:
[1] = DRUGMATRIX: Atrial Natriuretic Factor (ANF) radioligand binding (ligand: [125I] ANF (rat)); assay type: cell membranes, Cavia porcellus, Dunkin-Hartley, Adrenal gland, Membrane; conditions: Not Active = under 50% inhibition at 10 µM
[2] = DRUGMATRIX: Calcium Channel Type L, Dihydropyridine radioligand binding (ligand: [3H] Nitrendipine); assay type: cell membranes, Rattus norvegicus, Wistar, Cerebral cortex, Membrane; conditions: Not Active = under 50% inhibition at 10 µM
Vasopressin V1a receptor = Vasopressin V1a receptor (Homo sapiens, UniProt P37288); assay type: cell membranes, Membrane; conditions: hek293; note: in other assays of this panel Not Active means under 50% inhibition at 10 µM
Sequence of Vasopressin V1a receptor (P37288 whole entry): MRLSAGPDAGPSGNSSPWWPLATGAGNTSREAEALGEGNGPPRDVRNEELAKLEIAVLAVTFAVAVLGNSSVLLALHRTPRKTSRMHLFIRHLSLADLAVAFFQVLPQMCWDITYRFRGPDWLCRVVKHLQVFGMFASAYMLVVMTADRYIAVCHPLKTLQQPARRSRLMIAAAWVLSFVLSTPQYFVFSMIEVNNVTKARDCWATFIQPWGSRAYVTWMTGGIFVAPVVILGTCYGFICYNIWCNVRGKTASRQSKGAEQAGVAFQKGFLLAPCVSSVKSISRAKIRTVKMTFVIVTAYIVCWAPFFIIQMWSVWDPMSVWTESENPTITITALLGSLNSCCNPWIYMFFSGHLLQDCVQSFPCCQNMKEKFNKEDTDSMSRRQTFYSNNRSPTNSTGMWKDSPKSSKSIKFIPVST

[3] = molecular target: T1, 3-hydroxy-3-methylglutaryl-coenzyme A reductase (Homo sapiens, UniProt P04035); set-up: species or system Escherichia coli;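 note: enzyme inhibition assay of HMG-CoA reductase using radiolabeled [14C]HMG-CoA as substrate; in other assays of this panel Not Active means under 50% inhibition at 10 µM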
T1 sequence (P04035 whole entry): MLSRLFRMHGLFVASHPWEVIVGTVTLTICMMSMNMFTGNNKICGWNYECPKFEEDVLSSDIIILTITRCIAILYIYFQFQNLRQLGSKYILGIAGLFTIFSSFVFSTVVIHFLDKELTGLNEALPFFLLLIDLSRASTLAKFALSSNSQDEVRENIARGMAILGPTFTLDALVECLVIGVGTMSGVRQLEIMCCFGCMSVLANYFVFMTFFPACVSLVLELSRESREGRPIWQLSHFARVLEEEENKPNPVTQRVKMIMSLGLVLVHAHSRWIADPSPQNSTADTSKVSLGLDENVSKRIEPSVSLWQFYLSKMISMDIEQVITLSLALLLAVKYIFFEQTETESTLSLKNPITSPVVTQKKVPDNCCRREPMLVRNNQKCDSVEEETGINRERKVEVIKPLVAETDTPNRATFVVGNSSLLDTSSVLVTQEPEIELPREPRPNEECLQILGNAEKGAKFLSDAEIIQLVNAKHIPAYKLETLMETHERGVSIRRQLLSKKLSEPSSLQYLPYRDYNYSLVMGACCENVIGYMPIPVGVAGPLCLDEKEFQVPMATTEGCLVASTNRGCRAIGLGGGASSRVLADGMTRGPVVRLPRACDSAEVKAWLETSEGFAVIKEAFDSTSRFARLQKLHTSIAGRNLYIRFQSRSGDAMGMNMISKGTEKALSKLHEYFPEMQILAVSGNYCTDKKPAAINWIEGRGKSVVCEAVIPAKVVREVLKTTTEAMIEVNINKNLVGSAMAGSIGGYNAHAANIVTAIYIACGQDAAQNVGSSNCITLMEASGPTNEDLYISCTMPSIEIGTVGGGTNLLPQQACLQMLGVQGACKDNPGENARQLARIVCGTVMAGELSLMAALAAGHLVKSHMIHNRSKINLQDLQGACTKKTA

[4] = molecular target: T2, Polyunsaturated fatty acid lipoxygenase ALOX15 (Oryctolagus cuniculus, UniProt P12530); assay: biochemical; assay type: tissue-based, Reticulocytes; conditions: reticulocytes;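 note: inhibition of 15-lipoxygenase enzyme activity measured with linoleic acid as the substrate; in other assays of this panel Not Active means under 50% inhibition at 10 µM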
T2 sequence (P12530 whole entry): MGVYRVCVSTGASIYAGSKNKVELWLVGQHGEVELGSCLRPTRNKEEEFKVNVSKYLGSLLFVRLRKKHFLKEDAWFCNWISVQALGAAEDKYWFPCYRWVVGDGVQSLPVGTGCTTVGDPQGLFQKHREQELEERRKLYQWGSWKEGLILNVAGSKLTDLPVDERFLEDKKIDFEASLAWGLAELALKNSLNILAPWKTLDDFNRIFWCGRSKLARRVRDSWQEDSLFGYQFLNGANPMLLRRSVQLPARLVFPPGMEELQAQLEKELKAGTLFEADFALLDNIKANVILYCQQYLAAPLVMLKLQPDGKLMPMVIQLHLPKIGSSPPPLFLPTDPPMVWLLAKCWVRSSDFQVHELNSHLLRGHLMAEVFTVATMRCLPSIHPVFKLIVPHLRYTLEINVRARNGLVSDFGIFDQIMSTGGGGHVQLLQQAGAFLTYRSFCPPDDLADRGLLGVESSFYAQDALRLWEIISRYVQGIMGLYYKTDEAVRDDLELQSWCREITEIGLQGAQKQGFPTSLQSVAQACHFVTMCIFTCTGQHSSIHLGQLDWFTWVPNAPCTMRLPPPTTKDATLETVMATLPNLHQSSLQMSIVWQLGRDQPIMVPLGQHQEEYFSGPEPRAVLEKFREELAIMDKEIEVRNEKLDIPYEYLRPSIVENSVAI

Melanocortin receptor 4 = Melanocortin receptor 4 (Homo sapiens, UniProt P32245); assay type: cell membranes, HEK293, Membrane; conditions: hek293; note: in other assays of this panel Not Active means under 50% inhibition at 10 µM
Sequence of Melanocortin receptor 4 (P32245 whole entry): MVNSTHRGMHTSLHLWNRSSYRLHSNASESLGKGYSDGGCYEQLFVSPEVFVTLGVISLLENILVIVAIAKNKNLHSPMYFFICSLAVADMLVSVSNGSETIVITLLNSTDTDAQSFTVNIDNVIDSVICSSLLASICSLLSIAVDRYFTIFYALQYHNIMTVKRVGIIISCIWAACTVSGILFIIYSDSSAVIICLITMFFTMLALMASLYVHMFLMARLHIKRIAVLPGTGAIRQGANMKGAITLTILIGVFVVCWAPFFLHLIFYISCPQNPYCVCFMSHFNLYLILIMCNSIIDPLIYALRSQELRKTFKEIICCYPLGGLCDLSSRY

[5] = molecular target: Tyrosine-protein kinase Fyn (Homo sapiens, UniProt P06241); assay: biochemical; assay type: cell-based, Insect cells; conditions: insect cells
Sequence of Tyrosine-protein kinase Fyn (P06241 whole entry): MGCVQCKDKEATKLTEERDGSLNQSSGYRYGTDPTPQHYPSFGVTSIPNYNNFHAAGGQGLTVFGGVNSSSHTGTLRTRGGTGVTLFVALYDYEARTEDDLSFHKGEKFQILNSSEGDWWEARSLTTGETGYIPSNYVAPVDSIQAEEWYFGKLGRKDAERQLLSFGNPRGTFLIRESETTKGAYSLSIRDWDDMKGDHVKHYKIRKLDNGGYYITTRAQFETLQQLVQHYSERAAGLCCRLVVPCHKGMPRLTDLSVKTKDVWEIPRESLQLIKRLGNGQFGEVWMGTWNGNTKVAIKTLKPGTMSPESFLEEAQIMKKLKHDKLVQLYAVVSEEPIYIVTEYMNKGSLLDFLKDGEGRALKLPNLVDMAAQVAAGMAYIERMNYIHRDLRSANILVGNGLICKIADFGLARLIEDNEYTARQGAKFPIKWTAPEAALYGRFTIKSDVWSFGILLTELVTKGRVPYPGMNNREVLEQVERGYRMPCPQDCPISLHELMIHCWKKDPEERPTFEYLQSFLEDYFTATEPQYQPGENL

CC(C)[C@@]1(NC(=O)[C@@H]2C[C@@H]3c4cccc5[nH]cc(c45)C[C@H]3N(C)C2)O[C@@]2(O)[C@@H]3CCCN3C(=O)[C@H](Cc3ccccc3)N2C1=O.CS(=O)(=O)O [DIHYDROERGOCRISTINE MESYLATE]
Not Active: IC50 [1] | Ki [1] | IC50 [2] | Ki [2] | IC50 (Vasopressin V1a receptor) | IC50 [3] | IC50 [4] | IC50 (Melanocortin receptor 4) | IC50 [5]

CC[C@@]1(O)C[C@H](O[C@H]2C[C@H](N(C)C)[C@H](O[C@H]3C[C@H](O)[C@H](O[C@H]4CCC(=O)[C@H](C)O4)[C@H](C)O3)[C@H](C)O2)c2c(cc3c(c2O)C(=O)c2c(O)cccc2C3=O)[C@H]1C(=O)OC [ACLARUBICIN]
Not Active: IC50 [1] | Ki [1] | IC50 [2] | Ki [2] | IC50 (Vasopressin V1a receptor) | IC50 [3] | IC50 [4] | IC50 (Melanocortin receptor 4) | IC50 [5]

CCn1cc(C(=O)O)c(=O)c2cc(F)c(N3CCNCC3)cc21 [NORFLOXACIN]
Not Active: IC50 [1] | Ki [1] | IC50 [2] | Ki [2] | IC50 (Vasopressin V1a receptor) | IC50 [3] | IC50 [4] | IC50 (Melanocortin receptor 4) | IC50 [5]

Cc1c(O)c(=O)ccn1C [DEFERIPRONE]
Not Active: IC50 [1] | Ki [1] | IC50 [2] | Ki [2] | IC50 (Vasopressin V1a receptor) | IC50 [3] | IC50 [4] | IC50 (Melanocortin receptor 4) | IC50 [5]

NC1=NC(=O)C(c2ccccc2)O1 (stereo not drawn) [PEMOLINE]
Not Active: IC50 [1] | Ki [1] | IC50 [2] | Ki [2] | IC50 (Vasopressin V1a receptor) | IC50 [3] | IC50 [4] | IC50 (Melanocortin receptor 4) | IC50 [5]

Sc1ncnc2nc[nH]c12 [MERCAPTOPURINE ANHYDROUS]
Not Active: IC50 [1] | Ki [1] | IC50 [2] | Ki [2] | IC50 (Vasopressin V1a receptor) | IC50 [3] | IC50 [4] | IC50 (Melanocortin receptor 4) | IC50 [5]

COCCc1ccc(OCC(O)CNC(C)C)cc1 (stereo not drawn) [METOPROLOL]
Not Active: IC50 [1] | Ki [1] | IC50 [2] | Ki [2] | IC50 (Vasopressin V1a receptor) | IC50 [3] | IC50 [4] | IC50 (Melanocortin receptor 4) | IC50 [5]

O=c1[nH]c(=O)n([C@H]2C[C@H](O)[C@@H](CO)O2)cc1I [IDOXURIDINE]
Not Active: IC50 [1] | Ki [1] | IC50 [2] | Ki [2] | IC50 (Vasopressin V1a receptor) | IC50 [3] | IC50 [4] | IC50 (Melanocortin receptor 4) | IC50 [5]

CNNCc1ccc(C(=O)NC(C)C)cc1 [PROCARBAZINE]
Not Active: IC50 [1] | Ki [1] | IC50 [2] | Ki [2] | IC50 (Vasopressin V1a receptor) | IC50 [3] | IC50 [4] | IC50 (Melanocortin receptor 4) | IC50 [5]

CC(C)C(=O)Nc1ccc([N+](=O)[O-])c(C(F)(F)F)c1 [FLUTAMIDE]
Not Active: IC50 [1] | Ki [1] | IC50 [2] | Ki [2] | IC50 (Vasopressin V1a receptor) | IC50 [3] | IC50 [4] | IC50 (Melanocortin receptor 4) | IC50 [5]

C[C@H]1c2cccc(O)c2C(=O)C2=C(O)[C@]3(O)C(=O)C(C(N)=O)=C(O)[C@@H](N(C)C)[C@@H]3[C@@H](O)[C@@H]21.O [DOXYCYCLINE]
Not Active: IC50 [1] | Ki [1] | IC50 [2] | Ki [2] | IC50 (Vasopressin V1a receptor) | IC50 [3] | IC50 [4] | IC50 (Melanocortin receptor 4) | IC50 [5]

COc1ccc(C[C@H]2NC[C@H](O)[C@H]2OC(C)=O)cc1 [ANISOMYCIN]
Not Active: IC50 [1] | Ki [1] | IC50 [2] | Ki [2] | IC50 (Vasopressin V1a receptor) | Ki (Vasopressin V1a receptor) | IC50 [3] | Ki [3] | IC50 [4] | Ki [4] | IC50 (Melanocortin receptor 4) | Ki (Melanocortin receptor 4) | IC50 [5] | Ki [5]
